Holding throughout (format): functional
For assay [1], the species on record is Rattus norvegicus. The assay is described as follows: Plasma concentration measured in rat adipose tissue after treatment with the compound.
For assay [2], the species on record is Rattus norvegicus. Nature of the assay: Plasma concentration measured in rat spleen after treatment with the compound.
The species entered for assay [3] is Rattus norvegicus. The assay is described as follows: Partition coefficient in rat liver.
For assay [4], the species on record is Rattus norvegicus. The assay is described as follows: Plasma concentration measured in rat liver after treatment with the compound.
The species entered for assay [5] is Rattus norvegicus. Nature of the assay: Plasma concentration measured in rat plasma after treatment with the compound.
The species named for assay [6] is Rattus norvegicus. Nature of the assay: Plasma concentration measured in rat lung after treatment with the compound.
The species entered for assay [7] is Rattus norvegicus. Nature of the assay: Partition coefficient in rat spleen.
For assay [8], the species on record is Rattus norvegicus. Nature of the assay: Partition coefficient in rat lung.
The species named for assay [9] is Rattus norvegicus. The assay is described as follows: Partition coefficient in rat adipose tissue.

Regarding `O=[N+]([O-])/C(Br)=C/C1CCC(Br)O1` (centres undefined), the C was determined as 28.19 mg/mL in the assay listed under Rattus norvegicus [1]; 11.47 mg/mL in the assay filed under Rattus norvegicus [2]; 42.25 mg/mL in the assay listed under Rattus norvegicus [4]; 8.9 mg/mL in the assay filed under Rattus norvegicus [5]; 17.04 mg/mL in the assay listed under Rattus norvegicus [6]. Further, the PC in the assay filed under Rattus norvegicus [3] was found to be 4.75; in the assay filed under Rattus norvegicus [7] it was 1.29; in the assay listed under Rattus norvegicus [8], 1.91; in the assay listed under Rattus norvegicus [9], 3.17.

The values are drawn from ChEMBL document CHEMBL1144268, “Unified Markov thermodynamics based on stochastic forms to classify drugs considering molecular structure, partition system, and biological species: distribution of the antimicrobial G1 on rat tissues” (2005).
